Patent US7118895B2, “Process for producing aglycon by using diglycosidase and flavor-improved food containing the aglycon and converting agent to be used in the process” (Amano Enzyme Inc., priority 2000, dated 2006)

Assays:
[1] = system: β-Glucosidase derived from almond; experiment: Reactivity toward various isoflavone glycosides (HPLC); type: biochemical; parameters: unit not given here; details: 55 °C, pH 4.0
Experimental: Diglycosidase was diluted with an acetate buffer of pH 4.0 to prepare a 0.75 AU/mL enzyme solution. As references, a similar operation was conducted using β-glucosidase (manufactured by Fluka) derived from Aspergillus niger, β-glucosidase (manufactured by Sigma) derived from almond, β-xylosidase derived from pectinase G (manufactured by Amano Enzyme Inc.). Each of purified products of isoflavone glycosides (glycitin, acetylglycitin, malonylglycitin, daidzin, acetyldaidzin, malonyldaidzin, genistin, acetylgenistin, malonylgenistin, all manufactured by Nacalai Tesque, Inc.) was dissolved in methanol to prepare each 2 mM substrate solution. The reaction was carried out by mixing 10 μL of a substrate solution, 200 μL of 20 mM acetate buffer (pH 4.0), and 40 μL of each purified enzyme solution at a total liquid volume of 250 μL. The reaction was carried out at 55° C. and isolation of an aglycon isoflavone from an isoflavone glycoside in the reaction mixture was detected by HLPC at 0, 1, 3, and 6 hours of the reaction.
To the reaction mixture was added 700 μL of ethanol, followed by stirring and ultrasonication. After centrifugation at 15,000 rpm and 4° C. for 10 minutes, the supernatant was filtered through a filter and then the filtrate was applied to HPLC.
The isoflavone glycoside and aglycon isoflavone contained in the filtrate was separated and detected by a high performance liquid chromatography (HPLC, Shimadzu CLASS LC-10 system) using TOSOH TSK gel ODS-80TM column (manufactured by Tosoh Corporation). […] The absorbance at 260 nm was detected by a UV detector (Shimadzu, SPD-10AV). Using purified products (manufactured by Nacalai Tesque, Inc.) of the above isoflavone glycosides and aglycon isoflavones, the isoflavone glycoside and aglycon isoflavone were quantitatively determined according to a calibration curve method. By the way, unless otherwise stated, the measuring conditions of HPLC herein mean those described in the example.

Crude diglycosidase = experiment: Examination of temperature in the conversion into isoflavone aglycons by diglycosidase using soybean materials; type: biochemical, Penicillium multicolor IAM7153; parameters: Decomposition efficiency of glycitin family in roasted soy flour / Decomposition efficiency of daidzin family in roasted soy flour / Decomposition efficiency of genistin family in soymilk / Decomposition efficiency of daidzin family in soymilk / Decomposition efficiency of glycitin family in defatted soybean / Decomposition efficiency of daidzin family in defatted soybean: concentration or dose not given beside the values
Procedure, shortened: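 Temperature series (30-80° C.) of crude diglycosidase, diluted to 1.88 AU/mL in 20 mM acetate pH 4.0, acting on roasted soy flour, soymilk, defatted soybean or soy protein concentrate. Samples quenched with ethanol after 0-6 h, centrifuged, filtered and analyzed by HPLC for glycosides versus aglycons.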

[2] = 30° C., heat treatment of enzyme no, reaction time 0 h
[3] = 30° C., heat treatment of enzyme no, reaction time 1 h
[4] = 30° C., heat treatment of enzyme no, reaction time 3 h
[5] = 30° C., heat treatment of enzyme no, reaction time 6 h
[6] = 30° C., heat treatment of enzyme yes, reaction time 6 h
[7] = 45° C., heat treatment of enzyme no, reaction time 0 h
[8] = 45° C., heat treatment of enzyme no, reaction time 1 h
[9] = 45° C., heat treatment of enzyme no, reaction time 3 h
[10] = 45° C., heat treatment of enzyme no, reaction time 6 h
[11] = 45° C., heat treatment of enzyme yes, reaction time 6 h
[12] = 45 °C, heat treatment of enzyme: no, 0 h
[13] = 45 °C, heat treatment of enzyme: no, 1 h
[14] = 45 °C, heat treatment of enzyme: no, 3 h
[15] = 45 °C, heat treatment of enzyme: no, 6 h
[16] = 45 °C, heat treatment of enzyme: yes, 6 h
[17] = 55° C., heat treatment of enzyme no, reaction time 0 h
[18] = 55° C., heat treatment of enzyme no, reaction time 1 h
[19] = 55° C., heat treatment of enzyme no, reaction time 3 h

SMILES: CC(=O)OC[C@H]1O[C@@H](Oc2ccc3c(=O)c(-c4ccc(O)cc4)coc3c2)[C@H](O)[C@@H](O)[C@@H]1O [acetyldaidzin, 6″-O-acetyldaidzin]
- aglycon ([1]; Reaction time 0 h): 0.2
- glucoside ([1]; Reaction time 0 h): 99.8
- aglycon ([1]; Reaction time 1 h): 0.5
- glucoside ([1]; Reaction time 1 h): 99.5
- aglycon ([1]; Reaction time 3 h): 0.6
- glucoside ([1]; Reaction time 3 h): 99.4
- aglycon ([1]; Reaction time 6 h): 0.6
- glucoside ([1]; Reaction time 6 h): 99.4
- Decomposition efficiency of daidzin family in concentrated soybean protein (Crude diglycosidase; [2]): 44.6%
- Decomposition efficiency of daidzin family in defatted soybean (Crude diglycosidase; [2]): not detected
- Decomposition efficiency of daidzin family in concentrated soybean protein (Crude diglycosidase; [3]): 44.4%
- Decomposition efficiency of daidzin family in defatted soybean (Crude diglycosidase; [3]): not detected
- Decomposition efficiency of daidzin family in concentrated soybean protein (Crude diglycosidase; [4]): 43.9%
- Decomposition efficiency of daidzin family in defatted soybean (Crude diglycosidase; [4]): not detected
- Decomposition efficiency of daidzin family in concentrated soybean protein (Crude diglycosidase; [5]): 43.5%
- Decomposition efficiency of daidzin family in defatted soybean (Crude diglycosidase; [5]): not detected
- Decomposition efficiency of daidzin family in concentrated soybean protein (Crude diglycosidase; [6]): 42.3%
- Decomposition efficiency of daidzin family in defatted soybean (Crude diglycosidase; [6]): not detected
- Decomposition efficiency of daidzin family in soymilk (Crude diglycosidase; 30 °C, heat treatment of enzyme: no, 0 h): not detected
- Decomposition efficiency of daidzin family in soymilk (Crude diglycosidase; 30 °C, heat treatment of enzyme: no, 1 h): not detected
- Decomposition efficiency of daidzin family in soymilk (Crude diglycosidase; 30 °C, heat treatment of enzyme: no, 3 h): not detected
- Decomposition efficiency of daidzin family in soymilk (Crude diglycosidase; 30 °C, heat treatment of enzyme: no, 6 h): not detected
- Decomposition efficiency of daidzin family in soymilk (Crude diglycosidase; 30 °C, heat treatment of enzyme: yes, 6 h): not detected
- Decomposition efficiency of daidzin family in roasted soy flour (Crude diglycosidase; 35 °C, heat treatment of enzyme: no, 0 h): 47.8%
- Decomposition efficiency of daidzin family in roasted soy flour (Crude diglycosidase; 35 °C, heat treatment of enzyme: no, 1 h): 46.9%
- Decomposition efficiency of daidzin family in roasted soy flour (Crude diglycosidase; 35 °C, heat treatment of enzyme: no, 3 h): 45.3%
- Decomposition efficiency of daidzin family in roasted soy flour (Crude diglycosidase; 35 °C, heat treatment of enzyme: no, 6 h): 39.6%
- Decomposition efficiency of daidzin family in roasted soy flour (Crude diglycosidase; 35 °C, heat treatment of enzyme: yes, 6 h): 43.8%
- Decomposition efficiency of daidzin family in concentrated soybean protein (Crude diglycosidase; [7]): 44.5%
- Decomposition efficiency of daidzin family in defatted soybean (Crude diglycosidase; [7]): not detected
- Decomposition efficiency of daidzin family in concentrated soybean protein (Crude diglycosidase; [8]): 44.1%
- Decomposition efficiency of daidzin family in defatted soybean (Crude diglycosidase; [8]): not detected
- Decomposition efficiency of daidzin family in concentrated soybean protein (Crude diglycosidase; [9]): 41.5%
- Decomposition efficiency of daidzin family in defatted soybean (Crude diglycosidase; [9]): not detected
- Decomposition efficiency of daidzin family in concentrated soybean protein (Crude diglycosidase; [10]): 42.9%
- Decomposition efficiency of daidzin family in defatted soybean (Crude diglycosidase; [10]): not detected
- Decomposition efficiency of daidzin family in concentrated soybean protein (Crude diglycosidase; [11]): 0.0%
- Decomposition efficiency of daidzin family in defatted soybean (Crude diglycosidase; [11]): not detected
- Decomposition efficiency of daidzin family in roasted soy flour (Crude diglycosidase; [12]): 47.7%
- Decomposition efficiency of daidzin family in soymilk (Crude diglycosidase; [12]): not detected
- Decomposition efficiency of daidzin family in roasted soy flour (Crude diglycosidase; [13]): 42.9%
- Decomposition efficiency of daidzin family in soymilk (Crude diglycosidase; [13]): not detected
- Decomposition efficiency of daidzin family in roasted soy flour (Crude diglycosidase; [14]): 37.9%
- Decomposition efficiency of daidzin family in soymilk (Crude diglycosidase; [14]): not detected
- Decomposition efficiency of daidzin family in roasted soy flour (Crude diglycosidase; [15]): 28.5%
- Decomposition efficiency of daidzin family in soymilk (Crude diglycosidase; [15]): not detected
- Decomposition efficiency of daidzin family in roasted soy flour (Crude diglycosidase; [16]): 42.5%
- Decomposition efficiency of daidzin family in soymilk (Crude diglycosidase; [16]): not detected
- Decomposition efficiency of daidzin family in concentrated soybean protein (Crude diglycosidase; [17]): 44.5%
- Decomposition efficiency of daidzin family in defatted soybean (Crude diglycosidase; [17]): not detected
- Decomposition efficiency of daidzin family in concentrated soybean protein (Crude diglycosidase; [18]): 44.0%
- Decomposition efficiency of daidzin family in defatted soybean (Crude diglycosidase; [18]): not detected
- Decomposition efficiency of daidzin family in concentrated soybean protein (Crude diglycosidase; [19]): 40.6%
- Decomposition efficiency of daidzin family in defatted soybean (Crude diglycosidase; [19]): not detected
